Source: patent US20240180900A1, “COMPOUNDS AND METHODS FOR THE TARGETED DEGRADATION OF ANDROGEN RECEPTOR” (Arvinas Operations, Inc., priority 2022, published 2024)

Experiments:
VCaP tumor xenograft [1] = settings: cited from earlier work
prostate = experiment: 10-day prostate involution study in rats; type: in vivo, rat; settings: enzalutamide 100 mg/kg/day orally, 10 days, intact rats
Method: Enzalutamide and Compound A were orally administered once daily at the indicated doses. After 10 days of treatment, the prostate tissue from each rat was isolated and weighed. Treatment groups (n=5 per group) were compared by one way ANOVA. Note: ns: not significant, *: p<0.05, **: p≤0.01.
To substantiate the on-target mechanism of Compound A, a prostate involution study was conducted in rats. […] Twenty-four hours after the last dose, the rats were euthanized, and the prostate organs were isolated and weighed.

VCaP tumor xenograft [2] = experiment: VCaP tumor xenograft study in intact (non-castrated) mice; type: in vivo, mouse; settings: enzalutamide 20 mg/kg orally QD for 21 days
From the text: To mimic higher androgen levels found in an incomplete testosterone suppression environment, intact (non-castrated) mice were employed for a VCaP tumor xenograft study.

PSA = experiment: intracellular PSA ELISA in VCaP cells; type: cell-based; settings: Homo sapiens, CSS + 0.1 nM R1881, 48 hours, read-out: IC50, inhibiting PSA expression
Method: Intracellular prostate specific antigen (PSA) levels were determined using a PSA enzyme-linked immunosorbent assay (ELISA). […] The cell proliferation was determined using the CellTiter-Glo® assay. […] The CaspaseGlo® assay was carried out to measure the level of apoptosis in cells.
To evaluate the pharmacological effect of Compound A in vitro, PSA, cell proliferation, and apoptosis assays were carried out in VCaP cells.

cereblon = cereblon (Homo sapiens, UniProt Q96SW2); settings: pomalidomide 10 μM
cereblon, sequence (Q96SW2 whole entry): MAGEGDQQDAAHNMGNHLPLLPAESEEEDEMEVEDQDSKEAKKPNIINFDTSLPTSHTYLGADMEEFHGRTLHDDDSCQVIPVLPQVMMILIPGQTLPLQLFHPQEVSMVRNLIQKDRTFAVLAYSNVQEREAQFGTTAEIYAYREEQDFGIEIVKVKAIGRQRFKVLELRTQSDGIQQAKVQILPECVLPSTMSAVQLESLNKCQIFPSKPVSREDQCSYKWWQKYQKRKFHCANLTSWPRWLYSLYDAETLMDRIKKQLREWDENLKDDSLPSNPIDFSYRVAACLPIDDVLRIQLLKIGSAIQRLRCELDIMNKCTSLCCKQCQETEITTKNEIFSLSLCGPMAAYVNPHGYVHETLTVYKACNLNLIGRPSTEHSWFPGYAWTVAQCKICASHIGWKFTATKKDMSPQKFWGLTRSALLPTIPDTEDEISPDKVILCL

IC50 (PSA) | effect on Compound A mediated AR degradation (cereblon) | Structure (SMILES) | activity in the intact VCaP setting (published data) (VCaP tumor xenograft [1]) | Mean (±SEM) prostate weights (prostate) | tumor growth inhibition (TGI) (VCaP tumor xenograft [2])
175 nM | – | CNC(=O)c1ccc(N2C(=S)N(c3ccc(C#N)c(C(F)(F)F)c3)C(=O)C2(C)C)cc1F [enzalutamide, reference compound] | very modest activity, or no activity at all | 818 ± 170 mg | 27%
– | blocked Compound A mediated degradation | Nc1cccc2c1C(=O)N(C1CCC(=O)NC1=O)C2=O (centres unmarked) [pomalidomide] | – | – | –
